# Test: Actual dose of vitamin on inkjet-printed areas, immersed in water, by UV/Vis absorbance
# Assay type: physicochemical
# Conditions: for Vitamin B3 dose, measured: 262 nm
# Method: Two different ink solutions were used to print the vitamins onto the substrates. […] The solutions were filtered with 0.2 μm polypropylene membrane filter (Whatman, GE Healthcare, Piscataway, N.J., USA) before printing. Inkjet printing was performed with a […] printer (Fujifilm […] Clara, Calif., USA). In the printer, a MEMS-based cartridge-styled printhead with 16 nozzles linearly spaced at 254 μm that produce a nominal drop size of […] was used. Printing was performed in ambient conditions (relative humidity 45.5±5%, 21±1° C.) with a single nozzle using firing voltage of 35 V. The cartridge temperature was 30° C., and the drops were deposited at a drop spacing of 10 μm, 20 μm and 30 μm. The vitamins were printed in squares of 1 cm×1 cm on normal copy paper (n=6) and on multilayer curtain coated paper (n=1). […] Each printed area was immersed into predetermined amount of water and vigorously shaken. […] The calibration curves were done in water, as well.
SMILES,"Vitamin B2 dose, measured (drop spacing 10, 4 h incubation in water, 267 nm, theoretical 0.32 mg)","Vitamin B2 dose, measured (drop spacing 10, 4 h incubation in water, 373 nm, theoretical 0.32 mg)","Vitamin B2 dose, measured (drop spacing 10, second set of rows (no time heading printed), 267 nm, theoretical 0.32 mg)","Vitamin B2 dose, measured (drop spacing 10, second set of rows (no time heading printed), 373 nm, theoretical 0.32 mg)","Vitamin B2 dose, measured (drop spacing 20, 4 h incubation in water, 267 nm, theoretical 0.08 mg)","Vitamin B2 dose, measured (drop spacing 20, 4 h incubation in water, 373 nm, theoretical 0.08 mg)","Vitamin B2 dose, measured (drop spacing 20, second set of rows (no time heading printed), 267 nm, theoretical 0.08 mg)","Vitamin B2 dose, measured (drop spacing 20, second set of rows (no time heading printed), 373 nm, theoretical 0.08 mg)","Vitamin B2 dose, measured (drop spacing 30, 4 h incubation in water, 267 nm, theoretical 0.035 mg)","Vitamin B2 dose, measured (drop spacing 30, 4 h incubation in water, 373 nm, theoretical 0.035 mg)","Vitamin B2 dose, measured (drop spacing 30, second set of rows (no time heading printed), 267 nm, theoretical 0.035 mg)","Vitamin B2 dose, measured (drop spacing 30, second set of rows (no time heading printed), 373 nm, theoretical 0.035 mg)","Vitamin B3 dose, measured (drop spacing 10, 4 h incubation in water, 1 cm x 1 cm printed area, theoretical 0.501 mg)","Vitamin B3 dose, measured (drop spacing 10, 24 h incubation in water, theoretical 0.501 mg)","Vitamin B3 dose, measured (drop spacing 20, 4 h incubation in water, 1 cm x 1 cm printed area, theoretical 0.125 mg)","Vitamin B3 dose, measured (drop spacing 20, 24 h incubation in water, theoretical 0.125 mg)","Vitamin B3 dose, measured (drop spacing 30, 4 h incubation in water, 1 cm x 1 cm printed area, theoretical 0.056 mg)","Vitamin B3 dose, measured (drop spacing 30, 24 h incubation in water, theoretical 0.056 mg)"
"Cc1cc2nc3c(=O)[nH]c(=O)nc-3n(C[C@H](O)[C@H](O)[C@H](O)COP(=O)(O)O)c2cc1C [Vitamin B2, riboflavin sodium phosphate]",0.6255 mg,0.6459 mg,0.5847 mg,0.6141 mg,0.1337 mg,0.1403 mg,0.1199 mg,0.1276 mg,0.0623 mg,0.0658 mg,0.0521 mg,0.0560 mg,,,,,,
"O=C(O)c1cccnc1 [Vitamin B3, niacin]",,,,,,,,,,,,,0.7594 mg,0.7323 mg,0.2213 mg,0.2142 mg,0.0717 mg,0.0687 mg
